ChEMBL document CHEMBL2029286, “Trisubstituted imidazoles as Mycobacterium tuberculosis glutamine synthetase inhibitors” (J Med Chem, 2012)
Values after ≈ are worked out from the molar mass of the structure shown.

How the values were obtained:
[1] = Inhibition of Mycobacterium tuberculosis H37Rv glutamine synthetase expressed in Escherichia coli GJ4745 after 1 hr
[2] = tested on: Mycobacterium tuberculosis; test: Antitubercular activity against Mycobacterium tuberculosis H37Rv ATCC 27294 after 5 days by resazurin microtitre assay; format: functional; conditions: H37Rv ATCC 27294, 120 h
A549 = test: Cytotoxicity against human A549 cells after 72 hrs by resazurin reduction assay; format: cell-based; conditions: A549, 72 h
[3] = Selectivity ratio of IC50 for human A549 cells to MIC for Mycobacterium tuberculosis H37Rv ATCC 27294; format: functional

Row | Structure (SMILES) | IC50 [1] [µM] | MIC [2] [µg/mL] | further results
1 | COc1ccc2cc(-c3nc(C(C)(C)C)[nH]c3-c3ccncc3)ccc2c1 | 3.1 | > 32 | 
2 | COc1ccc2cc(-c3nc(C(C)(C)C)[nH]c3-c3ccccc3)ccc2c1 | > 25 |  | 
3 | COc1ccc2cc(-c3nc(C(C)(C)C)[nH]c3-c3ncccn3)ccc2c1 | > 25 |  | 
4 | COc1ccc2cc(-c3nc(C(C)(C)C)[nH]c3-c3cncnc3)ccc2c1 | > 25 |  | 
5 | CCc1nc(-c2ccc3cc(OC)ccc3c2)c(-c2ccncc2)[nH]1 | 2.2 | > 32 | 
6 | COc1ccc2cc(-c3nc(C)[nH]c3-c3ccncc3)ccc2c1 | > 25 |  | 
7 | COc1ccc2cc(-c3nc[nH]c3-c3ccncc3)ccc2c1 | > 25 |  | 
8 | COc1ccc2cc(-c3nc(COCc4ccccc4)[nH]c3-c3ccncc3)ccc2c1 | > 25 |  | 
9 | COc1ccc2cc(-c3nc(CO)[nH]c3-c3ccncc3)ccc2c1 | > 25 |  | 
10 | COc1ccc2cc(-c3nc(C(C)(C)c4ccccc4)[nH]c3-c3ccncc3)ccc2c1 | > 25 |  | 
11 | COc1ccc2cc(-c3nc(-c4cccc(O)c4)[nH]c3-c3ccncc3)ccc2c1 | > 25 |  | 
12 | COc1ccc2cc(-c3nc(-c4ccc[nH]4)[nH]c3-c3ccncc3)ccc2c1 | > 25 |  | 
13 | COc1ccc2cc(-c3nc(C(C)(C)C)[nH]c3-c3ccnc(F)c3)ccc2c1 | 1.2 | 64 (≈ 170 µM) | 
14 | COc1ccc2cc(-c3nc(C(C)(C)C)[nH]c3-c3ccnc(N)c3)ccc2c1 |  | 2 (≈ 5.37 µM) | IC50 (A549): 24.7 µM; Ratio IC50 [3]: 5
15 | CNc1cc(-c2[nH]c(C(C)(C)C)nc2-c2ccc3cc(OC)ccc3c2)ccn1 | 5.2 | 8 (≈ 20.7 µM) | 
16 | COc1ccc2cc(-c3nc(C(C)(C)C)[nH]c3-c3ccnc(N(C)C)c3)ccc2c1 | > 25 |  | 
17 | CC(C)(C)c1nc(-c2cnc3ccccc3c2)c(-c2ccncc2)[nH]1 |  | > 32 | 
18 | COc1ccc2cc(-c3nc(-c4ccccc4)[nH]c3-c3ccncc3)ccc2c1 | > 25 |  | 
